From ChEMBL document CHEMBL3046368, “Synthesis of benzothiazole derivatives and their biological evaluation as anticancer agents” (2012)
Calls of active or inactive are those of the source. The calls are words filed in the database; no cut-off is given here.

Assays:
UACC-62 = assay: Cytotoxicity against Homo sapiens (human) UACC62 cells after 48 hr by SRB assay; assay type: functional; conditions: UACC-62, 48 h
DU-145 = assay: Cytotoxicity against Homo sapiens (human) DU145 cells after 48 hr by SRB assay; assay type: functional; conditions: DU-145, 48 h
A498 = assay: Cytotoxicity against Homo sapiens (human) A498 cells after 48 hr by SRB assay; assay type: functional; conditions: A498, 48 h
SK-OV-3 = assay: Cytotoxicity against Homo sapiens (human) SKOV3 cells after 48 hr by SRB assay; assay type: functional; conditions: SK-OV-3, 48 h
T47D = assay: Cytotoxicity against Homo sapiens (human) T47D cells after 48 hr by SRB assay; assay type: functional
COLO 205 = assay: Cytotoxicity against Homo sapiens (human) COLO205 cells after 48 hr by SRB assay; assay type: functional; conditions: COLO 205, 48 h
786-0 = assay: Cytotoxicity against Homo sapiens (human) 786-0 cells after 48 hr by SRB assay; assay type: functional; conditions: 786-0, 48 h
RXF 393 = assay: Cytotoxicity against Homo sapiens (human) RXF393 cells after 48 hr by SRB assay; assay type: functional; conditions: RXF 393, 48 h
[1] = Cytotoxicity against Homo sapiens (human) ovarian cancer cells assessed as cell growth at 10^-5 M after 48 hr by SRB assay relative to control; assay type: functional; conditions: Cancer cell lines, read-out: Activity
SF-295 = assay: Cytotoxicity against Homo sapiens (human) SF295 cells after 48 hr by SRB assay; assay type: functional; conditions: SF-295, 48 h
[2] = target: T1, Ubiquitin-like modifier-activating enzyme 1 (Homo sapiens) (UniProt P22314); assay: Inhibition of ubiquitin displacement on His6-tagged E2 enzyme from His6-tagged UBA1 (unknown origin) at 10 uM after 1.5 hr by SDS-PAGE analysis
T1 sequence (whole entry): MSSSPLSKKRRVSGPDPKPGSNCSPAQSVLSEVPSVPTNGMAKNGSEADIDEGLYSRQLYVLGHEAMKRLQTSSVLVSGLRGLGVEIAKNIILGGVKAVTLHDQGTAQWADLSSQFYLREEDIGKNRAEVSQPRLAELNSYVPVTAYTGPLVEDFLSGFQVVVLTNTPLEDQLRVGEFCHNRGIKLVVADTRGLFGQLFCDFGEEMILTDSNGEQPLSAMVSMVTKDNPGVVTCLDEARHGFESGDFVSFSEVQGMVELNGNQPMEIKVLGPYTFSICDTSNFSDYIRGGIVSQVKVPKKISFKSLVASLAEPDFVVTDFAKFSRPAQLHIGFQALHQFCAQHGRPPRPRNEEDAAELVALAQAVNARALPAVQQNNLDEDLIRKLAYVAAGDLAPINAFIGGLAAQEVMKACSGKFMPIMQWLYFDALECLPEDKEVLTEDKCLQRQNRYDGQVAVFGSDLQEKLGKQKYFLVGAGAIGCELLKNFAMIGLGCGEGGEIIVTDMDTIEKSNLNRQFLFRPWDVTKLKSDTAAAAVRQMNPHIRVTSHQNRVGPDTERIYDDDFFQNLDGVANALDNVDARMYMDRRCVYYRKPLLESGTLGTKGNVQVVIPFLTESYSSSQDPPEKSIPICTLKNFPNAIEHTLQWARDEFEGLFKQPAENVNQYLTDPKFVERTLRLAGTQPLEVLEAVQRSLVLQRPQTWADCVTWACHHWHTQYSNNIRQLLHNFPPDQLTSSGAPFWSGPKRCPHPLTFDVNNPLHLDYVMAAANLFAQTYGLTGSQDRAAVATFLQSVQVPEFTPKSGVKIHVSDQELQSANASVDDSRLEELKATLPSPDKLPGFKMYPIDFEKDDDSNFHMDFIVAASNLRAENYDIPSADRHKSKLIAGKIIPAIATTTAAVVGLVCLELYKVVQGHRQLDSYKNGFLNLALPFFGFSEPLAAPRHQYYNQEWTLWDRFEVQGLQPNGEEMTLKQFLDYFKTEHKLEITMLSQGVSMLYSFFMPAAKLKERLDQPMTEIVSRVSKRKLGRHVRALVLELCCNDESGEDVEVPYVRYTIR

RPMI-8226 = assay: Cytotoxicity against Homo sapiens (human) RPMI8226 cells after 48 hr by SRB assay; assay type: functional; conditions: RPMI-8226, 48 h
M14 = assay: Cytotoxicity against Homo sapiens (human) M14 cells after 48 hr by SRB assay; assay type: functional; conditions: M14, 48 h
SNB-19 = assay: Cytotoxicity against Homo sapiens (human) SNB19 cells after 48 hr by SRB assay; assay type: functional; conditions: SNB-19, 48 h
SNB-75 = assay: Cytotoxicity against Homo sapiens (human) SNB75 cells after 48 hr by SRB assay; assay type: functional; conditions: SNB-75, 48 h
OVCAR-5 = assay: Cytotoxicity against Homo sapiens (human) OVCAR5 cells after 48 hr by SRB assay; assay type: functional; conditions: OVCAR-5, 48 h
SK-MEL-28 = assay: Cytotoxicity against Homo sapiens (human) SK-MEL-28 cells after 48 hr by SRB assay; assay type: functional; conditions: SK-MEL-28, 48 h
SR = assay: Cytotoxicity against Homo sapiens (human) SR cells after 48 hr by SRB assay; assay type: functional
HOP-92 = assay: Cytotoxicity against Homo sapiens (human) HOP92 cells after 48 hr by SRB assay; assay type: functional; conditions: HOP-92, 48 h
UACC-257 = assay: Cytotoxicity against Homo sapiens (human) UACC257 cells after 48 hr by SRB assay; assay type: functional; conditions: UACC-257, 48 h
MCF7 = assay: Cytotoxicity against Homo sapiens (human) MCF7 cells after 48 hr by SRB assay; assay type: functional; conditions: MCF7, 48 h
[3] = Cytotoxicity against Homo sapiens (human) leukemia cells assessed as cell growth at 10^-5 M after 48 hr by SRB assay relative to control; assay type: functional; conditions: read-out: Activity
MDA-MB-468 = assay: Cytotoxicity against Homo sapiens (human) MDA-MB-468 cells after 48 hr by SRB assay; assay type: functional; conditions: MDA-MB-468, 48 h
CAKI-1 = assay: Cytotoxicity against Homo sapiens (human) Caki1 cells after 48 hr by SRB assay; assay type: functional; conditions: CAKI-1, 48 h
LOX IMVI = assay: Cytotoxicity against Homo sapiens (human) LOXIMVI cells after 48 hr by SRB assay; assay type: functional
HT-29 = assay: Cytotoxicity against Homo sapiens (human) HT-29 cells after 48 hr by SRB assay; assay type: functional; conditions: HT-29, 48 h
NCI-H226 = assay: Cytotoxicity against Homo sapiens (human) NCI-H226 cells after 48 hr by SRB assay; assay type: functional; conditions: NCI-H226, 48 h
[4] = Cytotoxicity against Homo sapiens (human) renal cancer cells assessed as cell growth at 10^-5 M after 48 hr by SRB assay relative to control; assay type: functional; conditions: Cancer cell lines, read-out: Activity
HCT-15 = assay: Cytotoxicity against Homo sapiens (human) HCT15 cells after 48 hr by SRB assay; assay type: functional; conditions: HCT-15, 48 h
MOLT-4 = assay: Cytotoxicity against Homo sapiens (human) MOLT4 cells after 48 hr by SRB assay; assay type: functional; conditions: MOLT-4, 48 h

N#Cc1ccc(NC(=O)Nc2nc3ccc(OC(F)(F)F)cc3s2)cc1
GI50 (UACC-62): 741 nM
GI50 (DU-145): 2690 nM
GI50 (A498): 468 nM
GI50 (SK-OV-3): 2630 nM
GI50 (T47D): 427 nM
GI50 (COLO 205): 1700 nM
GI50 (786-0): 2000 nM
GI50 (RXF 393): 1860 nM
growth at 10 µM [1]: 8.95%
GI50 (SF-295): 1170 nM
inhibition [2]: inactive
GI50 (RPMI-8226): 1000 nM
GI50 (M14): 2400 nM
GI50 (SNB-19): 1510 nM
GI50 (SNB-75): 1820 nM
GI50 (OVCAR-5): 4270 nM
GI50 (SK-MEL-28): 2290 nM
GI50 (SR): 741 nM
GI50 (HOP-92): 324 nM
GI50 (UACC-257): 1350 nM
GI50 (MCF7): 1000 nM
growth at 10 µM [3]: -17.4%
GI50 (MDA-MB-468): 457 nM
GI50 (CAKI-1): 1580 nM
GI50 (LOX IMVI): 1480 nM
GI50 (HT-29): 2090 nM
GI50 (NCI-H226): 2000 nM
growth at 10 µM [4]: -7.46%
GI50 (HCT-15): 1380 nM
GI50 (MOLT-4): 1860 nM

O=C(Nc1ccc(F)cc1)Nc1nc2ccc(OC(F)(F)F)cc2s1
GI50 (UACC-62): 3550 nM
GI50 (DU-145): 3470 nM
GI50 (A498): 2950 nM
GI50 (SK-OV-3): 2570 nM
GI50 (T47D): 2630 nM
GI50 (COLO 205): 2090 nM
GI50 (786-0): 3470 nM
GI50 (RXF 393): 2690 nM
growth at 10 µM [1]: 12.9%
GI50 (SF-295): 2570 nM
inhibition [2]: inactive
GI50 (RPMI-8226): 2510 nM
GI50 (M14): 4370 nM
GI50 (SNB-19): 3720 nM
GI50 (SNB-75): 3470 nM
GI50 (OVCAR-5): 3630 nM
GI50 (SK-MEL-28): 3630 nM
GI50 (SR): 3720 nM
GI50 (HOP-92): 3890 nM
GI50 (UACC-257): 3550 nM
GI50 (MCF7): 2140 nM
growth at 10 µM [3]: 17.3%
GI50 (MDA-MB-468): 2340 nM
GI50 (CAKI-1): 2290 nM
GI50 (LOX IMVI): 3240 nM
GI50 (HT-29): 3890 nM
GI50 (NCI-H226): 2820 nM
growth at 10 µM [4]: 15.8%
GI50 (HCT-15): 3020 nM
GI50 (MOLT-4): 3090 nM
